Laboratory results published in ChEMBL document CHEMBL4689842, “EUbOPEN Chemogenomics Library wave 1” (2021).

Legend:
Assay type in all cases: toxicity, cell-based
HEK-293T = assay: Incucyte cell viability with HEK293T; details: human, 10 µM, compound concentration 10 uM
Fibroblast = assay: Incucyte cell viability with human fibroblast; details: 10 µM, compound concentration 10 uM
U2OS = assay: Incucyte cell viability with U2OS; details: human, 10 µM, compound concentration 10 uM
[1] = 0 h, replicate number 2, timepoint 0 hours
[2] = 6 h, replicate number 1, timepoint 6 hours
[3] = 12 h, replicate number 1, timepoint 12 hours
[4] = 18 h, replicate number 1, timepoint 18 hours
[5] = 24 h, replicate number 1, timepoint 24 hours
[6] = 0 h, replicate number 1, timepoint 0 hours
[7] = 6 h, replicate number 2, timepoint 6 hours
[8] = 18 h, replicate number 2, timepoint 18 hours
[9] = 24 h, replicate number 2, timepoint 24 hours
[10] = 12 h, replicate number 2, timepoint 12 hours
Further: filed as whole numbers so only -1 and 0 and 1 occur.

Row | SMILES | Growth Rate (HEK-293T; [1]) | Growth Rate (HEK-293T; [2]) | Growth Rate (HEK-293T; [3]) | Growth Rate (HEK-293T; [4]) | Growth Rate (HEK-293T; [5]) | Growth Rate (Fibroblast; [6]) | Growth Rate (Fibroblast; [7]) | Growth Rate (Fibroblast; [3]) | Growth Rate (Fibroblast; [4]) | Growth Rate (Fibroblast; [8]) | Growth Rate (Fibroblast; [5]) | Growth Rate (Fibroblast; [9]) | Growth Rate (U2OS; [6]) | Growth Rate (U2OS; [2]) | Growth Rate (U2OS; [3]) | Growth Rate (U2OS; [4]) | Growth Rate (U2OS; [5]) | Growth Rate (U2OS; [9]) | Growth Rate (Fibroblast; [2]) | Growth Rate (HEK-293T; [6]) | also measured
1 | CCCc1cc(C)[nH]c(=O)c1CNC(=O)c1cc(-c2ccnc(N3CCN(C)CC3)c2)cc2c1cnn2C(C)C | 1 | 0 | 0 | 0 | 0 | 0 | 0 | 1 | 1 | 0 | 1 | 0 | 0 | 0 | 1 | 0 | 0 | 1 |  |  | 
2 | CCC(=O)N[C@H]1CC[C@@H](C(=O)N(C)c2ccc(-c3nc4ccccc4o3)cc2)C1 [BI 99179] | 1 | 0 | 0 | 0 | 0 | 0 |  | 1 | 0 |  | 0 | 1 | 0 | 0 | 1 | 1 | 1 | 0 | 1 |  | Growth Rate (Fibroblast; [1]): 1; Growth Rate (U2OS; [7]): 1; Growth Rate (U2OS; [8]): 0
3 | CCNC(=O)c1cc2c(N3CCOC[C@@H]3C)ccnc2[nH]1 | 0 | 0 | 0 | 0 | 0 | 0 | 1 | 1 | 1 | 0 | 1 | 0 | 1 | 1 | 0 | 0 | 0 |  | 0 | 1 | Growth Rate (Fibroblast; [10]): 0; Growth Rate (U2OS; [7]): 0
4 | CN(C)CCCn1cc(C2=C(c3c[nH]c4ccccc34)C(=O)NC2=O)c2ccccc21 [GF-109203] | 1 | 0 | 0 | 0 | 0 | 0 |  | 1 | 0 | 1 | 0 |  |  |  | 1 | 0 | 0 |  |  | 0 | Growth Rate (U2OS; [1]): 0
5 | Cc1nc(C#Cc2ccnc(Cl)c2)c(C)n1-c1ccc(OC(F)(F)F)cc1 |  | 0 | 0 | 0 | 0 | 1 | 0 | 0 | 1 | 0 | 1 | 0 | 0 |  | 1 | 1 | 1 |  | 1 | 0 | Growth Rate (Fibroblast; [1]): 0
6 | Oc1ccc(-c2nc3cc(O)cc(Br)c3o2)cc1 | 0 | 0 | 0 | 1 | 0 | 0 |  |  | 1 |  | 1 |  |  |  | 1 | 1 | 1 |  | 0 | 1 | Growth Rate (HEK-293T; [7]): 1; Growth Rate (HEK-293T; [10]): 1; Growth Rate (U2OS; [7]): 0; Growth Rate (U2OS; [10]): 0
7 | O=C(Nc1cccnc1)c1cc(-c2ccnc(F)c2)ccc1OCc1ccccc1 |  |  |  |  | 1 | 0 |  | 0 | 0 | 1 | 0 | 1 |  | 1 | 0 | 0 | 0 | 1 | 0 | 0 | Growth Rate (HEK-293T; [7]): 1; Growth Rate (HEK-293T; [10]): 1; Growth Rate (HEK-293T; [9]): 0; Growth Rate (U2OS; [1]): 0
8 | O=C(NCc1ccc(F)cc1)C1CCN(S(=O)(=O)c2cc(Cl)cc(Cl)c2)CC1 |  | 1 | 1 | 0 | 0 | 0 | 1 |  |  | 1 | 1 |  | 0 |  | 1 | 0 | 0 | 1 |  | 0 | Growth Rate (HEK-293T; [10]): 0; Growth Rate (Fibroblast; [10]): 1; Growth Rate (U2OS; [7]): 0; Growth Rate (U2OS; [10]): 0; Growth Rate (U2OS; [8]): 1
9 | CC(C)NCC(O)c1ccc(N)c(C#N)c1 (stereo unspecified) [CIMATEROL] |  | 0 | 0 | 0 | 0 | 0 |  |  |  | 0 |  | 1 | 0 | 1 | 1 | 0 | 1 | 0 |  | 0 | Growth Rate (HEK-293T; [7]): 1; Growth Rate (HEK-293T; [10]): 1; Growth Rate (HEK-293T; [8]): 1; Growth Rate (Fibroblast; [10]): 1; Growth Rate (U2OS; [8]): 1
10 | Nc1nc(NCCc2ccc(O)cc2)nc2nc(-c3ccco3)nn12 [ZM-241385] | 0 | 0 | 0 | 0 | 0 | 0 | 0 | 1 | 1 | 0 | 1 |  |  | 0 | 0 | 0 | 0 | 1 |  | 1 | Growth Rate (Fibroblast; [1]): 1; Growth Rate (Fibroblast; [10]): 0; Growth Rate (U2OS; [1]): 0; Growth Rate (U2OS; [10]): 1; Growth Rate (U2OS; [8]): 1
11 | Cc1nc2sccn2c(=O)c1CCN1CCC(=C(c2ccc(F)cc2)c2ccc(F)cc2)CC1 [RITANSERIN] |  | 1 | 1 | 0 | 0 | 0 |  | 0 | 0 |  | 0 |  | 1 |  | 1 | 1 | 1 |  | 0 | 0 | Growth Rate (HEK-293T; [7]): 0; Growth Rate (HEK-293T; [10]): 0; Growth Rate (U2OS; [1]): 0
12 | N#Cc1ccccc1OCC(O)CNCCNC(=O)Nc1ccccc1 (stereo unspecified) [ICI-89406] | 0 | 0 | 0 | 1 | 1 | 0 |  | 0 | 0 |  | 0 |  | 0 | 1 | 0 | 0 | 1 | 0 | 0 | 1 | Growth Rate (HEK-293T; [10]): 1; Growth Rate (U2OS; [7]): 0
13 | CCCCc1nc(Cl)c(CO)n1Cc1ccc(-c2ccccc2-c2nn[nH]n2)cc1 [LOSARTAN] |  | 1 | 1 | 1 | 1 | 0 | 0 | 1 | 1 | 0 | 1 | 0 | 0 | 0 | 1 | 0 | 0 | 1 | 1 | 0 | Growth Rate (HEK-293T; [7]): 0; Growth Rate (HEK-293T; [10]): 0; Growth Rate (HEK-293T; [8]): 0; Growth Rate (HEK-293T; [9]): 0; Growth Rate (Fibroblast; [10]): 0; Growth Rate (U2OS; [7]): 1; Growth Rate (U2OS; [8]): 1
14 | CCCCN(CCCC)C(=O)CN1C[C@@H](c2ccc3c(c2)OCO3)[C@H](C(=O)O)[C@H]1c1ccc(OC)cc1 |  | 1 | 1 | 1 | 1 | 0 | 0 |  | 1 |  | 1 | 0 |  | 0 | 0 | 0 | 0 |  |  | 0 | Growth Rate (HEK-293T; [8]): 0; Growth Rate (HEK-293T; [9]): 0; Growth Rate (Fibroblast; [10]): 1
